This assay addresses T1, BcnA (Burkholderia cenocepacia, UniProt B4EE32).
T1 construct: gene BCAL3311; purified BcnA expressed from pET28a-bcnA in E. coli BL21
T1 sequence (B4EE32 27-186): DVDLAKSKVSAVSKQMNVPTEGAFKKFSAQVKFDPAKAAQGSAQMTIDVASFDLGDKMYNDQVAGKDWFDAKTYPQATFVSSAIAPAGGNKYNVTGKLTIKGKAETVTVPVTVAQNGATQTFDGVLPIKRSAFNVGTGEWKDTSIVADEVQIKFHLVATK
The assay is described as follows: isothermal titration calorimetry (ITC), […]°C, PBS pH […], N = […]. Format: binding. In general terms: Isothermal titration calorimetry measures the heat released or taken up as one component is titrated into another.

The values that follow come from article PMC6291622, “Vitamin E Increases Antimicrobial Sensitivity by Inhibiting Bacterial Lipocalin Antibiotic Binding” (mSphere, 2018).

One may read the Kd as the concentration at which binding is half-saturated. The low end stands for tighter binding, the high end for weaker binding.

Structures are written as SMILES.

`CCn1cc(C(=O)O)c(=O)c2cc(F)c(N3CCNCC3)cc21` [norfloxacin] displayed a Kd of 4.9 mM.
